In patent US6570001B1, “Polynucleotides and their use for detecting resistance to streptogramin A or to streptogramin B and related compounds” (priority 1997, dated 2003):

Columns and labels:
[1] = system: Staphylococcal strains resistant to streptogramins; settings: staphylococci resistant to synergistic mixtures of A and B compounds / to A compounds (Allignet et al., 1996); cited from earlier work
[2] = system: S. aureus recipient RN4220 transformants carrying recombinant plasmid pIP1717; assay: MICs by serial twofold dilutions in MHA, S. aureus RN4220 transformants carrying pIP1717 (vgaB); assay type: cell-based; settings: S. aureus RN4220 transformants with pIP1717
Text: First, the 2.4 kb HindIII-Haelll fragment of pIP1675, which contains only 10 nucleotide from vatB, was inserted into plasmid pOX300, and the recombinant plasmid, pIP1717 (FIG. 1B), was introduced by electroporation into the S. aureus recipient, RN4220 (Kreiswirth et al., 1983). Plasmid pOX300, also named pOX7, (Dyke and Curnock, 1989), is a hybrid of pUC18 and pEl94ts and replicates in E. coli where it confers resistance to ampicillin and to erythromycin, and in S. aureus where only resistance to erythromycin is expressed. The S. aureus transformants selected on 10 μg/ml erythromycin were resistant to streptogramin A and related compounds (PIIA MICs=8-16 μg/ml). Thus, the 2.4-kb HindIII-HaeIII insert of pIP1717 (FIG. 1B) probably carried a streptogramin A resistance gene and was sequenced. The nucleotide (nucleotide) sequence of this fragment was determined by the dideoxy method (Sanger et al., 1977) with the reagents and the procedure recommended by the suppliers of the T^7 sequencing kit (Pharmacia International). Arrows indicate the direction and extent of each dideoxy-sequencing reaction. (FIG. 1B).
(§1) Minimal inhibitory concentrations (MICs) of antibiotics were determined by serial twofold dilutions of antibiotics in MHA (Ericson H. M. and S. C. Sherris, ActaPathol. Microbiol. Scand., 1971, Suppl. 217:Section B).

[3] = system: S. aureus recipient strain RN4220 harboring pIP1714; assay: Susceptibility of S. aureus RN4220 transformant harboring pIP1714 (vatC, vgbB); assay type: cell-based; settings: RN4220 transformant harboring pIP1714, selected on 10 μg/ml pristinamycin IIA
Method: The strain BM10711 harbored several plasmids including pIP1714 (5 kb). This plasmid was isolated by electroporation in a S. aureus recipient strain, RN4220. The transformant, harboring pIP1714, was selected on BHIA containing 10 μg/ml pristinamycin IIA.
Susceptibility to antimicrobial agents was determined with a disk diffusion assay and commercially available disks (Diagnostic Pasteur). Additional disks prepared in our laboratory contained streptogramin A (20 μg) or streptogramin B (40 μg).
as §1

Q: Which MIC [1] does the source give for CC1=C\[C@@H](O)CC(=O)Cc2nc(co2)C(=O)N2CCC=C2C(=O)O[C@H](C(C)C)[C@H](C)/C=C/C(=O)NC\C=C\1 [PIIA, pristinamycin IIA] here?
A: ≥ 8 µg/mL

Q: For streptogramin A, which resistance phenotype [2] is on record?
A: resistant

Q: And the resistance phenotype [3]?
A: conferred resistances

Q: Which resistance phenotype [3] does the source give for streptogramin B here?
A: conferred resistances
